Assay results: PubChem BioAssay (NCI)
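96-well plates; 48 h exposure; 5 concentrations. Endpoints by linear interpolation between flanking doses. Not reached: highest tested concentration assigned. At the TGI there is no net growth.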

Tests used:
Test in all cases: NCI tumour cell line growth inhibition, 48 h
[1] = system: SR leukemia
[2] = system: OVCAR-3 ovarian
[3] = system: HCT-116 colon
[4] = system: SK-OV-3 ovarian
[5] = system: TK-10 renal
[6] = system: SNB-78 CNS
[7] = system: DLD-1 colon
[8] = system: M19-MEL melanoma
[9] = system: DMS 273 small cell lung
[10] = system: HOP-18 NSCLC
[11] = system: LXFL 529 NSCLC
[12] = system: DMS 114 small cell lung
[13] = system: KM20L2 colon

Structure (SMILES) | TGI [1] [µM] | TGI [2] [µM] | TGI [3] [µM] | TGI [4] [µM] | TGI [5] [µM] | TGI [6] [µM] | TGI [7] [µM] | TGI [8] [µM] | TGI [9] [µM] | TGI [10] [µM] | TGI [11] [µM] | TGI [12] [µM] | TGI [13] [µM]
Cc1ccc2nc(-c3ccc(N)c(I)c3)sc2c1 | 19.8 | > 100 | > 100 | > 100 | 17.7 |  |  |  |  |  |  |  | 
CC1=NC(=Cc2ccc(O)cc2)C(=O)N1n1c(-c2ccccc2)nc2ccccc2c1=O | > 100 |  | > 100 | > 100 | > 100 |  |  |  |  |  |  |  | 
O=C(NCCCNC(=O)c1ccc2c(O)c(O)ccc2c1)c1ccc2c(O)c(O)ccc2c1 | > 90.7 | 56.5 | > 94.4 | > 100 | > 85.6 |  |  |  |  |  |  |  | 
N#Cc1sc2nc(/C=C3/C=CC=CC3=O)c(O)n2c1N | 60.3 | > 100 | > 100 | > 100 | > 100 |  |  |  |  |  |  |  | 
CC(=O)c1sc2c(c1OC(=O)c1cccs1)c(=O)n(-c1ccccc1)c(=S)n2-c1ccccc1 |  | 50.4 | 36.6 | 52 | 55.4 |  |  |  |  |  |  |  | 
COc1ccc(CCNC2=CC(=O)c3ncccc3C2=O)cc1OC | > 79.8 | 5.12 | 10.2 | 24.4 | > 86 |  |  |  |  |  |  |  | 
COc1ccc2c(c1)CC[C@@H]1[C@@H]2CC[C@]2(C)C(=O)/C(=C/c3ccc(OC)c(OC)c3)C[C@@H]12 | > 100 | > 100 | > 100 | > 100 | > 100 |  |  |  |  |  |  |  | 
CNC(=S)N/N=C(C)\C(=N/NC(=S)NC)c1ccccc1 |  | > 100 | > 100 | > 100 | > 100 |  |  |  |  |  |  |  | 
CCN(CC)c1ccc2cc(-c3nnc(-c4ccccc4)o3)c(=O)oc2c1 | > 100 | 37.1 | > 100 | 21.2 | > 62.6 |  |  |  |  |  |  |  | 
CC1=C(Br)C(Br)=C(C)S1=O | 19.3 | 23.9 | 18.2 | 65.5 | 48.5 |  |  |  |  |  |  |  | 
CN(Nc1cc(=O)[nH]c(=O)[nH]1)c1ccccc1 | > 100 | > 100 | > 100 | > 100 | > 100 |  |  |  |  |  |  |  | 
N#CC(NNC(=O)Cc1ccccc1)c1ccccc1O (configuration not stated) | 70.7 | > 43.6 | > 100 | > 85.4 | > 100 | > 100 | > 100 | 27 | > 100 | 74.9 | > 100 |  | 
O=c1[nH]cc(COCC(F)(F)C(F)(F)C(F)(F)C(F)F)c(=O)[nH]1 | > 100 | > 100 | > 100 | > 100 | > 100 |  | > 100 | > 100 |  | > 100 | > 100 | > 100 | > 100
CCOC(=O)CC1c2ccc(O)cc2OC(=O)C1c1ccc([N+](=O)[O-])cc1 (configuration not stated) | 77.5 | > 100 | 82.3 | 85.5 | 75.3 |  |  |  |  |  |  |  | 
CCC1c2[nH]c3ccccc3c2C[C@H]2C(=O)NC(COC(C)(C)C)C(=O)N12 (some centres not stated) | > 100 | > 100 | > 100 | > 100 | > 100 |  |  |  |  |  |  |  | 
c1cc(-c2ncc(-c3ccc4c(c3)CCCO4)o2)ccn1 |  | 29.9 | 39.3 | 93.5 | 89.8 |  |  |  |  |  |  |  | 
O=C1NC(=O)C(c2c[nH]c3cc(Br)ccc23)=C1c1cn(C(c2ccccc2)(c2ccccc2)c2ccccc2)cn1 | 32.3 | > 100 | 23.6 | > 100 | 38.4 |  |  |  |  |  |  |  | 
CCN1c2nc3ccccc3nc2N(CC)c2nc3ccccc3nc21 | > 100 | > 100 | > 100 | > 100 | > 100 |  |  |  |  |  |  |  | 
COc1ccc2c3c1O[C@H]1C(O)CCC4(O)[C@@H](C2)NCC[C@]314 (some centres not stated) | > 100 | > 100 | > 100 | > 100 | > 100 |  |  |  |  |  |  |  | 
O=C(O)c1ccc(NNc2cc(=O)[nH]c(=O)[nH]2)cc1 | > 100 | > 100 | > 100 | > 100 | > 100 |  |  |  |  |  |  |  | 
Cc1cc(C)cc(C(=N)c2ccccc2Cc2cccc3ccccc23)c1 | 41.3 | 32.9 | 23.2 | 41.5 | 94.6 |  |  |  |  |  |  |  | 
O=C1c2cc3c(cc2CC12Cc1cc4c(cc1C2=O)CCC4)CCCC3 (configuration not stated) | > 100 | > 100 | > 100 | > 100 | > 100 |  |  |  |  |  |  |  | 
COC1=C(Br)[C@H](O)[C@@]2(C=C1Br)CC(C(=O)NCCCCCN=C(N)N)=NO2 | > 10 | > 10 | > 10 | > 10 | > 10 |  |  |  |  |  |  |  | 
COC(=O)C1=C(C)NC(C)=C(C(=O)OC)C1c1ccc(/[N+]([O-])=C/c2ccccc2)cc1 | 80 | 34.4 | 30 | > 100 | > 100 |  |  |  |  |  |  |  | 
N#Cc1c(-c2ccccc2)[nH]c2ccccc2c1=O | > 100 | > 100 | > 100 | > 100 | 97.8 |  |  |  |  |  |  |  | 
CC(=O)OC1CC2c3cccc4c3C(CC2N(C)C1=O)CN4C(=O)c1ccccc1 (configuration not stated) | 94.8 | 30.1 | 32.8 | 80.4 | > 100 |  |  |  |  |  |  |  | 
CC1=C(C(N)=O)C(c2ccncc2)C(C#N)=C2SCC(=O)N12 (configuration not stated) | > 100 | > 100 | > 100 | > 100 |  |  |  |  |  |  |  |  | 
Cc1cn(C2CC(ON3C(=O)c4ccccc4C3=O)C(CO)O2)c(=O)[nH]c1=O (configuration not stated) | > 10 | > 10 | > 10 | > 10 | > 10 |  |  |  |  |  |  |  | 
CC1(C)OCC2OC3(c4nc(C#N)c(N)o4)OC(C)(C)OC3C2O1 (configuration not stated) | > 100 | > 100 | > 100 | > 100 | > 100 |  |  |  |  |  |  |  | 
